Laboratory results published in patent EP0225522A1, “Imidazopyridazine alkene carboxamides, process for their preparation, intermediate products and their preparation” (BAYER AG, priority 1985, dated 1987).

System: männliche Ratten
Experiment: Diuretic and saluretic effect in fasted male rats: urine and electrolyte excretion over 6 hours in metabolism cages
Assay type: in vivo, Ratten (SPF
Details: 100 mg/kg p.o. in 10 ml/kg Tylose-Suspension, excretion over 6 Stunden, fasted male Wistar rats; for K^+ / Na^+: flame photometer
Protocol: Die pharmakologische Wirkung der erfindungsgemäßen Verbindungen wurden nach folgender Testmethode ermittelt: Nüchterne männliche Ratten im Gewicht von 150 bis 250 g (SPF, Wistar, je n=4 Paare) werden mit 10 ml/kg p.o. Tylose-Suspension (0,5 X) als Kontrollen bzw. mit 100 mg/kg p.o. Prüfsubstanz in 10 ml/kg p.o. Tylose-Suspension mittels Schlundsonde behandelt. Die Tiere werden in Stoffwechselkäfige gebracht und die Harn- und Elektrolytauscheidung über 6 Stunden bestimmt (Na^4 und K^4 Bestimmung: IL-Flammenphotometer).

CCN(CC)C(=O)/C=C/c1c(-c2ccccc2)nc2ccc(N3CCN(C)CC3)nn12 [Beispiel 35]
Harn: 21 mL/kg
K^+: 800 µmol/kg
Na^+: 3100 µmol/kg

CN1CCN(c2ccc3nc(-c4ccccc4)c(/C=C/C(=O)N4CCCCC4)n3n2)CC1 [Beispiel 33]
Harn: 26 mL/kg
K^+: 450 µmol/kg
Na^+: 3400 µmol/kg

Cc1ccc2nc(-c3ccccc3)c(/C=C/C(=O)N3CCCCC3)n2n1 [Beispiel 14]
Harn: 25 mL/kg
K^+: 900 µmol/kg
Na^+: 2900 µmol/kg
